ChEMBL document CHEMBL6134778, “Spiro-Azetidine Oxindoles as Long-Acting Injectables for Pre-Exposure Prophylaxis against Respiratory Syncytial Virus Infections” (J Med Chem, 2024)
≈ marks a conversion by molar mass, not a printed value.

How the values were obtained:
[1] = system: Respiratory syncytial virus; assay: Antiviral activity against RSV A2 harboring eGFP infected in human HeLa cells assessed as reduction in virus replication measured after 3 days by laser microscopy; assay type: functional, organism-based; details: 72 h
[2] = system: Respiratory syncytial virus; assay: Antiviral activity against RSV A2 harboring eGFP infected in human HeLa cells assessed as reduction in virus replication by measuring 3X protein-adjusted effective concentration for 90% inhibition measured after 3 days in presence of human serum albumin and alpha(1)-acid glycoprotein by laser microscopy; assay type: functional; details: time 3 day
HeLa = assay: Cytotoxicity against human HeLa cells assessed as reduction in cell viability at highest concentration measured after 3 days by ATPlite assay; assay type: toxicity, cell-based; details: 72 h, time 3 day
[3] = Chromatographic hydrophobicity index, logD of the compound at pH 7.4 by UPLC analysis; assay type: physicochemical; details: buffer
[4] = Equilibrium solubility of the compound […] at pH 7 measured after 3 days by LC-MS/MS analysis; assay type: physicochemical; details: time 3 day
[5] = Thermodynamic solubility in aqueous buffer at pH 7 incubated for 24 hrs by UPLC analysis; assay type: physicochemical; details: read-out: Therm_solubility
[6] = Intrinsic clearance in human liver microsomes assessed per mg protein at 1 uM measured after 60 mins in presence of NADPH by LC-MS/MS analysis; assay type: ADME, Microsome; details: read-out: CLH
[7] = Clearance in Sprague-Dawley rat at 1 mg/kg, iv by LC-MS/MS analysis; assay type: ADME, organism-based; details: in vivo
[8] = Volume of distribution at steady state in Sprague-Dawley rat at 1 mg/kg, iv by LC-MS/MS analysis; assay type: ADME, organism-based; details: in vivo, read-out: Vdss
Rattus norvegicus [9] = assay: Particle size for the 50th percentile of the cumulative volume distribution in Sprague-Dawley rat at 50 mg/kg, IM […]; assay type: ADME, organism-based; details: in vivo
Rattus norvegicus [10] = assay: Release rate constant in Sprague-Dawley rat at 50 mg/kg, IM measured over 12 weeks by LC-MS/MS analysis; assay type: ADME, organism-based; details: in vivo, 2016 h
[11] = Bioavailability in Sprague-Dawley rat assessed as dose released at 50 mg/kg, IM measured over 12 weeks by LC-MS/MS analysis; assay type: ADME, organism-based; details: in vivo
[12] = Clearance in Beagle dog at 0.25 mg/kg, iv by LC-MS/MS analysis; assay type: ADME, organism-based, Canis lupus familiaris; details: in vivo
[13] = Volume of distribution at steady state in Beagle dog at 0.25 mg/kg, iv by LC-MS/MS analysis; assay type: ADME, organism-based, Canis lupus familiaris; details: in vivo, read-out: Vdss
Canis familiaris [14] = assay: Particle size for the 50th percentile of the cumulative volume distribution in Beagle dog at 20 mg/kg, IM […]; assay type: ADME, organism-based, Canis lupus familiaris; details: in vivo
Canis familiaris [15] = assay: Release rate constant in Beagle dog at 20 mg/kg, IM by LC-MS/MS analysis; assay type: ADME, organism-based, Canis lupus familiaris; details: in vivo
[16] = Bioavailability in Beagle dog assessed as dose released at 20 mg/kg, IM by LC-MS/MS analysis; assay type: ADME, organism-based, Canis lupus familiaris; details: in vivo
[17] = system: Respiratory syncytial virus; assay: Antiviral activity against RSV A/07-041911 harboring eGFP infected in human HeLa cells assessed as reduction in virus replication measured after 3 days by laser microscopy; assay type: functional, organism-based; details: A/07-041911, HeLa, 72 h
[18] = system: Respiratory syncytial virus; assay: Antiviral activity against RSV A/11-014288 harboring eGFP infected in human HeLa cells assessed as reduction in virus replication measured after 3 days by laser microscopy; assay type: functional, organism-based; details: A/11-014288, HeLa, 72 h
[19] = system: Respiratory syncytial virus; assay: Antiviral activity against RSV A/12-049454 harboring eGFP infected in human HeLa cells assessed as reduction in virus replication measured after 3 days by laser microscopy; assay type: functional, organism-based; details: A/12-049454, HeLa, 72 h
[20] = system: Respiratory syncytial virus; assay: Antiviral activity against RSV A/13-000323 harboring eGFP infected in human HeLa cells assessed as reduction in virus replication measured after 3 days by laser microscopy; assay type: functional, organism-based; details: A/13-000323, HeLa, 72 h
[21] = system: Respiratory syncytial virus; assay: Antiviral activity against RSV A/18-001989 harboring eGFP infected in human HeLa cells assessed as reduction in virus replication measured after 3 days by laser microscopy; assay type: functional, organism-based; details: A/18-001989, HeLa, 72 h
[22] = system: Respiratory syncytial virus; assay: Antiviral activity against RSV rgRSV224 (A2-GFP) harboring eGFP infected in human HeLa cells assessed as reduction in virus replication measured after 3 days by laser microscopy; assay type: functional, organism-based; details: 72 h
[23] = system: Respiratory syncytial virus; assay: Antiviral activity against RSV pSynk-A2F (A2-mKate2) harboring eGFP infected in human HeLa cells assessed as reduction in virus replication measured after 3 days by laser microscopy; assay type: functional, organism-based; details: 72 h
[24] = system: Respiratory syncytial virus; assay: Antiviral activity against RSV A2 harboring V76A/Y117H/N517I/L172Q mutant infected in human HeLa cells assessed as reduction in virus replication measured after 3 days by laser microscopy; assay type: functional, organism-based; details: 72 h
[25] = system: Respiratory syncytial virus; assay: Antiviral activity against RSV A Memphis 37 harboring eGFP infected in human HeLa cells assessed as reduction in virus replication measured after 3 days by laser microscopy; assay type: functional, organism-based; details: A Memphis 37, HeLa, 72 h
[26] = system: Respiratory syncytial virus; assay: Antiviral activity against RSV A Long harboring eGFP infected in human HeLa cells assessed as reduction in virus replication measured after 3 days by laser microscopy; assay type: functional, organism-based; details: 72 h
[27] = system: Respiratory syncytial virus; assay: Antiviral activity against RSV B/03-034613 harboring eGFP infected in human HeLa cells assessed as reduction in virus replication measured after 3 days by laser microscopy; assay type: functional, organism-based; details: B/03-034613, HeLa, 72 h
[28] = system: Respiratory syncytial virus; assay: Antiviral activity against RSV B/05-036549 harboring eGFP infected in human HeLa cells assessed as reduction in virus replication measured after 3 days by laser microscopy; assay type: functional, organism-based; details: B/05-036549, HeLa, 72 h
[29] = system: Respiratory syncytial virus; assay: Antiviral activity against RSV B/11-050703 harboring eGFP infected in human HeLa cells assessed as reduction in virus replication measured after 3 days by laser microscopy; assay type: functional, organism-based; details: B/11-050703, HeLa, 72 h
[30] = system: Respiratory syncytial virus; assay: Antiviral activity against RSV B/14-006938 harboring eGFP infected in human HeLa cells assessed as reduction in virus replication measured after 3 days by laser microscopy; assay type: functional, organism-based; details: B/14-006938, HeLa, 72 h
[31] = system: Respiratory syncytial virus; assay: Antiviral activity against RSV B/17-058221 harboring eGFP infected in human HeLa cells assessed as reduction in virus replication measured after 3 days by laser microscopy; assay type: functional, organism-based; details: B/17-058221, HeLa, 72 h
[32] = system: Respiratory syncytial virus; assay: Antiviral activity against RSV B/18-002094 harboring eGFP infected in human HeLa cells assessed as reduction in virus replication measured after 3 days by laser microscopy; assay type: functional, organism-based; details: B/18-002094, HeLa, 72 h
[33] = system: Respiratory syncytial virus; assay: Antiviral activity against RSV B Wash/18537 harboring eGFP infected in human HeLa cells assessed as reduction in virus replication measured after 3 days by laser microscopy; assay type: functional, organism-based; details: B Wash/18537, HeLa, 72 h
[34] = system: Respiratory syncytial virus; assay: Antiviral activity against RSV B pSynk-18537F (18537-mKate2) harboring eGFP infected in human HeLa cells assessed as reduction in virus replication measured after 3 days by laser microscopy; assay type: functional, organism-based; details: 72 h
[35] = system: Respiratory syncytial virus; assay: Antiviral activity against RSV A2 infected in PO or IM dosed BALB/c mouse assessed as reduction in viral titer in BALF by plaque assay; assay type: functional, organism-based; details: human respiratory syncytial virus
[36] = system: Respiratory syncytial virus; assay: Antiviral activity against RSV A Long infected in PO dosed cotton rat assessed as reduction in viral titer in BALF administered twice day from 1 day prior to infection to 3 days post-infection by plaque assay; assay type: functional, organism-based; details: human respiratory syncytial virus
[37] = Intrinsic clearance in human hepatocytes assessed per million cells measured after 6 hrs using tritiated compound by LC-MS/MS analysis; assay type: ADME, cell-based, Hepatocyte; details: read-out: CLH
[38] = Intrinsic clearance in human hepatocytes assessed per million cells at 1 uM measured after 180 mins by LC-MS/MS analysis; assay type: ADME, cell-based, Hepatocyte; details: read-out: CLH

## CS(=O)(=O)N1CC2(C1)C(=O)N(Cc1nc3cc(Cl)ccc3n1CCCC(F)(F)F)c1ccccc12
[1]
  EC50: 0.78 nM
[2]
  protein-adjusted EC90: 0.034 µg/mL
HeLa
  Activity: Non-toxic
[3]
  CHI: 3.39
[4]
  solubility at 72 h: < 0.04 µM
[5]
  solubility thermodynamic at 24 h: < 0.1 µg/mL
[6]
  microsomal CLint at 1 µM: < 7.7 µL/min/mg
[7]
  clearance: 18.5 mL/min/kg
[8]
  Vd: 4.43 L/kg
Rattus norvegicus [9]
  Median particle size (D50): 6.38 um
Rattus norvegicus [10]
  Ka: 0 h⁻¹
[11]
  bioavailability: 52%
[12]
  clearance: 0.46 mL/min/kg
[13]
  Vd: 5.3 L/kg
Canis familiaris [14]
  Particle size (D50): 5.06 um
Canis familiaris [15]
  Ka: 0 h⁻¹
[16]
  bioavailability: 50%
[17]
  EC50: 1.6 nM
[18]
  EC50: 1.6 nM
[19]
  EC50: 1.6 nM
[20]
  EC50: 1.6 nM
[21]
  EC50: 1.6 nM
[22]
  EC50: 1.6 nM
[23]
  EC50: 1.6 nM
[24]
  EC50: 1.6 nM
[25]
  EC50: 1.6 nM
[26]
  EC50: 1.6 nM
[27]
  EC50: 1.6 nM
[28]
  EC50: 1.6 nM
[29]
  EC50: 1.6 nM
[30]
  EC50: 1.6 nM
[31]
  EC50: 1.6 nM
[32]
  EC50: 1.6 nM
[33]
  EC50: 1.6 nM
[34]
  EC50: 1.6 nM
[35]
  EC50: 0.088 µg/mL (≈ 0.167 µM)
[36]
  EC50: 0.026 µg/mL (≈ 0.0493 µM)
[37]
  hepatocyte CLint: < 1.2 µL/min/1e6 cells

## CC(C)NC(=O)N1CC2(C1)C(=O)N(Cc1nc3cc(Cl)ccc3n1CCCC(F)(F)F)c1cnccc12
[1]
  EC50: 0.23 nM
[2]
  protein-adjusted EC90: 0.0037 µg/mL
HeLa
  Activity: Non-toxic
[3]
  CHI: 2.39
[4]
  solubility at 72 h: 11 µM (≈ 5.88 µg/mL)
[5]
  solubility thermodynamic at 24 h: < 0.1 µg/mL
[6]
  microsomal CLint at 1 µM: < 7.7 µL/min/mg
[38]
  hepatocyte CLint at 1 µM: < 1.2 µL/min/1e6 cells
[7]
  clearance: 36.9 mL/min/kg
[8]
  Vd: 1.94 L/kg
Rattus norvegicus [9]
  Median particle size (D50): 4.36 um
Rattus norvegicus [10]
  Ka: 0.005 h⁻¹
[11]
  bioavailability: 107%
[12]
  clearance: 14.6 mL/min/kg
[13]
  Vd: 1.66 L/kg
Canis familiaris [14]
  Particle size (D50): 5.03 um
Canis familiaris [15]
  Ka: 0.01 h⁻¹
[16]
  bioavailability: 90%

## CC(C)C(=O)N1CC2(C1)C(=O)N(Cc1nc3cc(Cl)ccc3n1CCCCF)c1cnccc12
[1]
  EC50: 1 nM
[2]
  protein-adjusted EC90: 0.017 µg/mL
HeLa
  Activity: Non-toxic
[3]
  CHI: 2.14
[4]
  solubility at 72 h: 361 µM (≈ 175 µg/mL)
[5]
  solubility thermodynamic at 24 h: 44 µg/mL (≈ 90.9 µM)
[6]
  microsomal CLint at 1 µM: < 7.7 µL/min/mg
[38]
  hepatocyte CLint at 1 µM: < 1.2 µL/min/1e6 cells
[7]
  clearance: 26.3 mL/min/kg
[8]
  Vd: 5.3 L/kg
Rattus norvegicus [9]
  Median particle size (D50): 9.11 um
Rattus norvegicus [10]
  Ka: 0.013 h⁻¹
[11]
  bioavailability: 142%
[12]
  clearance: 11.8 mL/min/kg
[13]
  Vd: 0.82 L/kg
Canis familiaris [14]
  Particle size (D50): 5.43 um
Canis familiaris [15]
  Ka: 0.033 h⁻¹
[16]
  bioavailability: 122%
